The target in test [1] is T1, Adenosine receptor A2b (Homo sapiens, UniProt P29275).
T1 sequence (P29275 whole entry): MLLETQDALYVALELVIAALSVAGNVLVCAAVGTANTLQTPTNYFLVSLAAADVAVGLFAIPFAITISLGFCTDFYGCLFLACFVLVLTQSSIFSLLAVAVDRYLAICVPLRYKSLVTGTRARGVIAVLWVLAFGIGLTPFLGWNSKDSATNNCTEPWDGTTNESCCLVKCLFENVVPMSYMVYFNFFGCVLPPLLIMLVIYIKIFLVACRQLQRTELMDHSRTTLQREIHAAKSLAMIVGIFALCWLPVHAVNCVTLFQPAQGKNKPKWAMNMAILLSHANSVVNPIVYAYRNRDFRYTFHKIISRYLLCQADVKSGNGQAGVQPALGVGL
In words: Displacement of [3H]PSB-603 from human recombinant adenosine A2B receptor expressed in CHO cells after 75 mins by liquid scintillation counting analysis.

Test [2] concerns the target Adenosine receptor A2a (Rattus norvegicus, UniProt P30543). Nature of the test: Displacement of [3H]CGS21680 from adenosine A2A receptor in rat brain striatal membrane after 60 mins by liquid scintillation counting analysis. A general note: Displacement assays read how much labelled ligand stays bound in the presence of the test substance.

Chain of Adenosine receptor A2a (P30543 whole entry): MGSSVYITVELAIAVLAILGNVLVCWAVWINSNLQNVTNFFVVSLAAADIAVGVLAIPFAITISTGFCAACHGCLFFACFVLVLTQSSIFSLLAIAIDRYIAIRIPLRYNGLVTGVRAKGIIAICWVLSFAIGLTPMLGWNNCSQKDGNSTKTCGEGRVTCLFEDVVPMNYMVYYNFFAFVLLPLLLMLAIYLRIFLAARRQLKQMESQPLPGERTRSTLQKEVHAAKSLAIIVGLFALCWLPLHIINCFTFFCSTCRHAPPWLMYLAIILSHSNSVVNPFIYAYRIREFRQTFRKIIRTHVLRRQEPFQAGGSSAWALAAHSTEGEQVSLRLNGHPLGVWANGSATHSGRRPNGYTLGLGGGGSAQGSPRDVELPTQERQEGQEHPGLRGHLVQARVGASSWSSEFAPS

The term Ki denotes a measure of affinity in units of concentration, obtained from inhibition or displacement. As for `CN(NC(CO)C(=O)[C@@H](O)[C@@H](O)CO)c1nc(N)c2ncn([C@@H]3O[C@H](CO)[C@@H](O)[C@H]3O)c2n1` (some centres not stated), the figures for the Ki in test [1] and in test [2] were above 10 µM and above 1 µM, respectively.
The corresponding values for `CN(NCC(=O)[C@@H](O)[C@@H](O)CO)c1nc(N)c2ncn([C@@H]3O[C@H](CO)[C@@H](O)[C@H]3O)c2n1` are above 10 µM and above 1 µM.
The corresponding values for `CN(NCC(=O)[C@H](O)[C@@H](O)[C@@H](O)CO)c1nc(N)c2ncn([C@@H]3O[C@H](CO)[C@@H](O)[C@H]3O)c2n1` are above 10 µM and above 1 µM.
As to `CN(NCC(=O)[C@@H](O)[C@@H](O)[C@H](O)CO)c1nc(N)c2ncn([C@@H]3O[C@H](CO)[C@@H](O)[C@H]3O)c2n1`, the results for the Ki in test [1] and in test [2] were above 10 µM and above 1 µM, respectively.
Consider `Nc1nc(NNC(CO)C(=O)[C@@H](O)[C@@H](O)CO)nc2c1ncn2[C@@H]1O[C@H](CO)[C@@H](O)[C@H]1O` (some centres not stated), for which the values for the Ki in test [1] and in test [2] were above 10 µM and above 1 µM, respectively.
As for `Nc1nc(NNCC(=O)[C@@H](O)[C@@H](O)CO)nc2c1ncn2[C@@H]1O[C@H](CO)[C@@H](O)[C@H]1O`, the Ki in test [1] is above 10 µM; in test [2], above 1 µM.
